IC50 data for two molecules are collected here from patent US20070066606A1, “Benzylbenzimidazolyl derivatives” (priority 2003, published 2007).

The term IC50 denotes the midpoint of a concentration-inhibition curve.

This assay has as its target TIE-2 (Homo sapiens, UniProt Q02763). Put plainly: TIE-2 kinase flashplate assay (phosphorylation of poly(Glu, Tyr) with 33P-ATP). Format: biochemical. As to conditions: read-out: Inhibition of TIE-2 IC50. As to the method:
The TIE-2 tests can be carried out, for example, analogously to the methods indicated in WO 02/44156.
The assay determines the inhibiting activity of the substances to be tested in the phosphorylation of the substrate poly(Glu, Tyr) by Tie-2 kinase in the presence of radioactive ^33P-ATP. The phosphorylated substrate binds to the surface of a “flashplate” microtitre plate during the incubation time. After removal of the reaction mixture, the microtitre plate is washed a number of times and the radioactivity on its surface is subsequently measured. An inhibiting effect of the substances to be measured results in lower radioactivity compared with an undisturbed enzymatic reaction.

Chain of TIE-2 (Q02763 23-1124, species assumed): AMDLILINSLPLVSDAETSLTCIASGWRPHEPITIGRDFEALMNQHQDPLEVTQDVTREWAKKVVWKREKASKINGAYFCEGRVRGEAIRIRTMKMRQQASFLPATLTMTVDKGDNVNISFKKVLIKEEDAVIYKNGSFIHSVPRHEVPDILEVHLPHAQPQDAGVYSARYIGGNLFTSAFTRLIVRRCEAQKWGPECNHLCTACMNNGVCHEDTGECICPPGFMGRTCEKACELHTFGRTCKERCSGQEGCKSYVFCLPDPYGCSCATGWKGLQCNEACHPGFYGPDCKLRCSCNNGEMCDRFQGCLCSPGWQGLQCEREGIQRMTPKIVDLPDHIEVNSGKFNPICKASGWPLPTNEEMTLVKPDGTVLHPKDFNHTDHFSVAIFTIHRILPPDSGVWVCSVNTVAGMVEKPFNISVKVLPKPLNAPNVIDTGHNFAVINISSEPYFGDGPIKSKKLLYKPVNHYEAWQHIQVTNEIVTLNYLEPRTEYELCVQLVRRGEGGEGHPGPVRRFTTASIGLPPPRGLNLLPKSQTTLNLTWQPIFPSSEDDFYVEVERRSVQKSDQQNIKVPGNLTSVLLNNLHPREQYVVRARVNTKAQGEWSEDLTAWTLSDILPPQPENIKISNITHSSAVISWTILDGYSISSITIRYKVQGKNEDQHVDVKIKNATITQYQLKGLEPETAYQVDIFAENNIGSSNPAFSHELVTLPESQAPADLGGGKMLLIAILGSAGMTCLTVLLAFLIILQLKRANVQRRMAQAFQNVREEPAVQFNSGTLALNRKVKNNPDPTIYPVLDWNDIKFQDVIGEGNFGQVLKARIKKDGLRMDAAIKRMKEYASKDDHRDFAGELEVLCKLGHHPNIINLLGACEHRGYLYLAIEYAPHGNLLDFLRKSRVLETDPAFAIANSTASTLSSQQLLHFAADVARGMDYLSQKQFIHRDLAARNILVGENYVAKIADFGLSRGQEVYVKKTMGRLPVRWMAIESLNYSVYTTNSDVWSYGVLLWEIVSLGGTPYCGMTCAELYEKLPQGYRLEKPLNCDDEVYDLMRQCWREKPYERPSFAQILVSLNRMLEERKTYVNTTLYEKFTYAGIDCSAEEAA

In the case of `Nc1nc2cc(Br)ccc2n1Cc1ccc(NS(=O)(=O)c2cccc(Cl)c2Cl)cc1` [N-[4-(2-amino-5-bromo-benzimidazol-1-ylmethyl)-phenyl]-2,3-dichloro-benzenesulfonamide], the IC50 was 2.78 µM.
The figure for `Nc1nc2cc(CCCO)ccc2n1Cc1ccc(NS(=O)(=O)c2cccc(Cl)c2Cl)cc1` [N-{4-[2-amino-5-(3-hydroxy-propyl)benzimidazol-1-yl-methyl]phenyl}-2,3-dichloro-benzenesulfonamide] is 0.32 µM.
